Assay results published in US7173018B2, “Phospholipid derivatives of non-steroidal anti-inflammatory drugs” (D-Pharm, Ltd., priority 1998, dated 2007).

Experiments:
[1] = test system: Carrageenan-induced rat paw edema; test: Carrageenan-induced rat paw edema (anti-inflammatory efficacy); assay type: in vivo; settings: rats, 3, 5 and 7 hours post-carrageenan, p<0.05, FIG. 3
Protocol: Efficacy of DP-DFC lipid derivatives was tested in vivo in the model system of rodent carrageenan edema test.
Carrageenan-induced rat paw edema is a widely employed animal model for acute inflammation. The objective of the study is to assess the potential prophylactic effects of DP-DCF derivatives on the prevention of inflammatory swelling and, in particular, to compare the efficacy parameters with those obtained for diclofenac. The experimental set-up was as follows: Male Sprague-Dawley rats weighing 120–180 g (supplied by Harlan Laboratories Breeding Center, Israel) were intraperitoneally (i.p.) injected with drug or prodrug one hour prior to the induction of inflammation with carrageenan. Animals injected with vehicle alone served as control group.
Paw edema was induced by a single sub-plantar injection of 0.1 ml 2% carrageenan in physiological saline, into test animals' right hind paws. Just prior to paw edema induction, the paw thickness of the test animals' right hind paws was measured in triplicate using a plethysmograph and micrometer to provide a baseline. At 3, 5 and 7 hours post carrageenan injection, the right paw thickness was measured in the same manner as before.
Potential anti-inflammatory activity in suppressing carrageenan-induced paw oedema was assessed by the relative differences in paw volumes between pre- and post-carrageenan measurements, expressed as (%) change. […]

[2] = test system: global forebrain ischemia; test: Global forebrain ischemia model, serum neuron specific enolase (NSE); assay type: in vivo, Mongolian gerbils; settings: gerbils
Protocol: Neuroprotective effects of compounds of the invention were examined in the global forebrain ischemic model system in Mongolian gerbils.
Male Mongolian gerbils 60–70 g (Charles River Laboratories, USA) were used in this study. Global forebrain ischemia was induced by transient occlusion of both carotid arteries for 10 minutes, using arterial clips. The tested compounds were orally administered to the animals, 7–8 animals per group, by either one of two schemes: • a) single dose administration of commercial diclofenac (Sigma, USA; 10 mg/kg) or dose-equivalent of DP-DCF; Z=5 (30 mg/kg). The administration was per os (p.o.) two hours before induction of ischemia (FIG. 4); • b) multiple dosing of DP-DCF; Z=5 (30 mg/kg) orally administered daily for 5 days beginning four days prior to induction of ischemia. (FIG. 5).
In both schemes, animals treated with vehicle alone served as control groups. Blood samples were withdrawn from eye sinuses of the animals 24 hours after the onset of ischemia and serum levels of neuron specific enolase (NSE) were determined by radioimmunoassay using NSE kit (Pharmatope Ltd., Israel).
It has been shown that serum levels of NSE are elevated in the event of ischemic insult. Thus, serum level of NSE may serve as a marker for the degree of neuronal damage (Barone et al. (1993) Brain Res. 623: 77–82).

[3] = In vivo sub-chronic toxicity study: gastro-toxicity scores; parameters: species or system rat; settings: rats, 10 mg/kg p.o. daily, day 14; scores 0 (no visible lesions) to 5 (perforation); FIG. 2
Protocol: Male Sprague-Dawley rats weighing 250–280 g were kept under standard conditions for an acclimatization period of one week with food and water supplied ad lib. […] Animals treated with the vehicle solution alone serve as control group.
Toxicity scores were assessed at the end of the 14-day multiple p.o drug administration period. On day 14, the animals were anesthetized 4 hours after administration of the test materials by i.p. injection of 0.5 ml pentobarbitone sodium (200 mg/ml) and laparatomy was preformed to remove the rat's stomach with approximately 15 mm of the associated duodenum. The stomachs were cut open along the small curvature and washed, with gentle rubbing, under running water. A semi-quantitative assessment of the gastric damage was determined by assigning scores ranging from 0 to 5. The scores indicate as follows: (0) No macroscopically visible lesions; (1) Hyperemia; (2) One-two slight lesions; (3) More than 2 slight lesions; (4) Severe lesions; (5) Perforation.

[4] = In vivo sub-chronic toxicity study: body weight changes; parameters: species or system rat; settings: rats, 10 mg/kg p.o. gavage daily for 14 days; FIG. 1
Protocol: DP-DCF compounds were evaluated for sub-chronic toxicity during 14-day drug administration period by following two criteria: a) monitoring body weight changes, and b) evaluating gastro-toxicity scores.
Male Sprague-Dawley rats weighing 250–280 g were kept under standard conditions for an acclimatization period of one week with food and water supplied ad lib. The rats were administered with commercial diclofenac (DCF; Sigma, USA) or with equivalent doses of 1-Stearoyl-2-{4-[2-(2,6-dichloroanilino)-phenylacetamido]butanoyl}-sn-glycero-3-phosphocholine (DP-DCF; Z=3) or 1-Stearoyl-2-{6-[2-(2,6-dichloroanilino)-phenylacetamido]hexanoyl}-sn-glycero-3-phosphocholine (DP-DCF; Z=5), p.o. by gavage daily for 14 days. Animals treated with the vehicle solution alone serve as control group.
The treatment groups were as follows:
A major sign of general toxicity is decreasing of body weight. Male Sabra rats were treated as described above. The rats were weighed prior to dosing at the beginning of the experiment (day zero) and at the 5th, 9th and 13th day of the treatment.

Compound	Anti-inflammatory activity: suppression of carrageenan-induced increase of paw volume ([1]; 30 mg/kg i.p. one hour prior to carrageenan)	Serum NSE level 24 hours after ischemia ([2]; 30 mg/kg orally daily for 5 days beginning four days prior to ischemia, p<0.05, FIG. 5)	Serum NSE level 24 hours after ischemia ([2]; single dose 30 mg/kg p.o. two hours before ischemia, FIG. 4)	Gastro-toxicity score [3]	Anti-inflammatory activity: suppression of carrageenan-induced increase of paw volume ([1]; 10 mg/kg i.p. one hour prior to carrageenan)	Body weight changes (%) [4]
1-Stearoyl-2-{6-[2-(2,6-dichloroanilino)phenylacetamido]hexanoy}-sn-glycero-3-phosphocholine [DCF n=5]	statistically significant and consistent anti-inflammatory activity	significant reduction in NSE level	reduced in comparison to NSE level in serum of animals that were treated with DCF or vehicle alone			
O=C(O)Cc1ccccc1Nc1c(Cl)cccc1Cl [DCF, [o-(2,6-dichloroanilino)phenyl]acetic acid]				4	statistically significant and consistent anti-inflammatory activity	maximal decrease of body weight on day 5
